Reference: patent US20240246913A1, “2-CARBOXYL-INDOLE INHIBITORS OF METALLO-BETA-LACTAMASES” (Oxford University Innovation Limited, priority 2021, published 2024)

Assays:
VIM-1 = VIM-1 (Pseudomonas aeruginosa, UniProt A0A0F7KYQ8); assay: MBL inhibition, FC-5 fluorescence assay, VIM-1; type: biochemical; settings: FC-5 cephalosporin substrate, ranges of obtained pIC50, read-out: pIC50 VIM-1 (converted)
Summary of the method: (§1)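 Dose-response fits (log inhibitor vs normalized response, variable slope) used initial reaction rates, each concentration in 4 replicates within the plate. Rates came from fluorophore release at ex 380/em 460 nm as the MBL hydrolyzed FC-5.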

NDM-1 = NDM-1 (Klebsiella pneumoniae, UniProt C7C422); assay: MBL inhibition, FC-5 fluorescence assay, NDM-1; type: biochemical; settings: FC-5 cephalosporin substrate, fluorescence; ranges of obtained pIC50; read-out: pIC50 NDM-1 (converted)
Summary of the method: as §1

[1] = Metabolic stability in human hepatocytes; type: in vitro ADME; settings: cryopreserved human hepatocytes, 1 μM compound, 37° C., up to 90 min, read-out: Metabolic stability in hepatocytes, in vitro t1/2, Human
Summary of the method: (§2)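 Cryopreserved hepatocytes at 1.0×10^6 cells/ml in Williams medium E were incubated with 1 μM compound (final) at 37° C. Samples at 0, 5, 15, 30, 60 and 90 min were quenched with MeCN containing warfarin internal standard and analysed by LC-MS/MS.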

[2] = Metabolic stability in mouse hepatocytes; type: in vitro ADME; settings: cryopreserved mouse hepatocytes, 1 μM compound, 37° C., up to 90 min, read-out: Metabolic stability in hepatocytes, in vitro t1/2, Mouse
Summary of the method: as §2

[3] = test system: Acinetobacter baumannii NDM-1; assay: Antibiotic susceptibility testing (MIC), AB NDM-1; type: cell-based; settings: agar or broth dilution (CLSI/EUCAST)
Protocol: (§3) Antibiotic susceptibility testing was performed using the agar or broth dilution method, in line with the Clinical and Laboratory Standards Institute (CLSI) and European Committee on Antimicrobial Susceptibility Testing (EUCAST) requirements.

[4] = Plasma protein binding, equilibrium dialysis, human plasma; type: in vitro ADME; settings: pH 7.4, equilibrium dialysis (RED) 4 hours at 37° C., read-out: Plasma protein binding, fu, Human
Summary of the method: (§4)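 Compound at 10 μM in plasma dialysed against 67 mM phosphate buffer pH 7.4 for 4 h at 37° C. in RED device; unbound fraction from buffer and plasma levels by LC-MS/MS. Plasma stability checked in parallel over 4 h at 37° C. versus frozen control.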

Escherichia coli NDM-7 = assay: Antibiotic susceptibility testing (MIC), EC NDM-7; type: cell-based; settings: agar or broth dilution (CLSI/EUCAST)
Protocol: as §3

bacteria = assay: Thigh and/or septicaemia mouse model of infection, with meropenem; type: in vivo; settings: NMRI mice; single dose with meropenem subcutaneous 1 h after inoculation; endpoint 3 h after treatment initiation
Protocol: Female NMRI mice (5-6 weeks old, 26-30 gram, n=5) were rendered neutropenic via intraperitoneal injection of two doses of cyclophosphamide on day 4 and day 1 before infection. The animals were infected via intramuscular injection of an inoculum containing 10^6 CFU/mL of bacteria in the left thigh. The animals were treated with a single dose of meropenem subcutaneous +/− inhibitor 1 h after inoculation, and animals were either euthanised at the start of treatment or at the study endpoint at 3 h after treatment initiation. Clinical scores were monitored at 1 and 4 hours post inoculation and were in all cases mild or moderate. Thighs were aseptically removed from the animals, homogenised, diluted, and plated for incubation. Bacterial counting was performed after 18-22 h of incubation at 35° C. in ambient air.
Immunocompetent female NMRI mice mice (5-6 weeks old, 26-30 gram, n=5) were inoculated intraperitoneally with 0.5 ml inoculum containing 5×10^5 CFU suspended in 5% porcine mucin.
The animals were treated with a single dose of meropenem subcutaneous+/−metallo-b-lactamase inhibitor intravenous 1 h after inoculation. Animals were either euthanised at the start of treatment or at the study endpoint at 3 h after treatment initiation. Clinical scores were monitored at 1 and 4 hours post inoculation and were in all cases mild or moderate. Mice were anaesthetised anesthetized with a buprenorphine/tiletamine/zolazepam cocktail and bled, then euthanized and the peritoneum flushed with 2 ml sterile 0.9% NaCl and collected. The blood and/or peritoneal flush were serially diluted and plated for incubation. Bacterial counting was performed after 18-22 h of incubation at 35° C. in ambient air.

IMP-1 = IMP-1 (Serratia marcescens, UniProt P52699); assay: MBL inhibition, FC-5 fluorescence assay, IMP-1; type: biochemical; settings: FC-5 cephalosporin substrate, fluorescence; ranges of obtained pIC50; read-out: pIC50 IMP-1 (converted)
Summary of the method: as §1

Escherichia coli NDM-1 = assay: Antibiotic susceptibility testing (MIC), EC NDM-1; type: cell-based; settings: agar or broth dilution (CLSI/EUCAST)
Protocol: as §3

[5] = Plasma protein binding, equilibrium dialysis, mouse plasma; type: in vitro ADME; settings: pH 7.4, equilibrium dialysis (RED) 4 hours at 37° C., read-out: Plasma protein binding, fu, Mouse
Summary of the method: as §4

VIM-2 = VIM-2 (Escherichia coli, UniProt Q5U7L7); assay: MBL inhibition, FC-5 fluorescence assay, VIM-2; type: biochemical; settings: FC-5 cephalosporin substrate, ranges of obtained pIC50, read-out: pIC50 VIM-2 (converted)
Summary of the method: as §1

Chain of NDM-1 (C7C422 29-270, looked up, species assumed): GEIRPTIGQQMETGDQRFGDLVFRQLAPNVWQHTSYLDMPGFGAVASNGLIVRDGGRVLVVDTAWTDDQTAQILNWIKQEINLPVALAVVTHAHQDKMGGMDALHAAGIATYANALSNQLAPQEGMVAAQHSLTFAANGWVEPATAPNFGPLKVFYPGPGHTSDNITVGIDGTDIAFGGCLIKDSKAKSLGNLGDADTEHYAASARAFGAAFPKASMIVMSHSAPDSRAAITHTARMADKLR
Chain of IMP-1 (P52699 19-246, looked up, species assumed): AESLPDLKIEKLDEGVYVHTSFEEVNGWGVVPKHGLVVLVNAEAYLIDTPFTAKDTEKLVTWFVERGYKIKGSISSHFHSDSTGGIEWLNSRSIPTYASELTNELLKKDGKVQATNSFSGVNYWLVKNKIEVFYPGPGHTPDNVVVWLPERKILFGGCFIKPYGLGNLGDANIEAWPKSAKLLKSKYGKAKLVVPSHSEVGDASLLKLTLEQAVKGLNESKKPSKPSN

**Q.** With `C[C@@H](c1cccc2c(-c3ccc(NS(C)(=O)=O)c(F)c3)c(C(=O)O)[nH]c12)n1cc(CN2CC(N)C2)oc1=O` [IC-57, 7-[(1S)-1-{5-[(3-Aminoazetidin-1-yl)methyl]-2-oxo-2,3-dihydro-1,3-oxazol-3-yl}ethyl]-3-(3-fluoro-4-methanesulfonamidophenyl)-1H-indole-2-carboxylic acid] as the compound, how does the IC50 (VIM-1) read?
**A.** 1 to 10 nM

**Q.** And the IC50 (NDM-1)?
**A.** < 0.1 nM

**Q.** What about the half-life at 1 μM [1] of the same compound?
**A.** 2.5 to 6.67 h

**Q.** What about the half-life at 1 μM [2] of the same compound?
**A.** < 2.5 h

**Q.** And the “MIC values AB NDM-1” value [3]?
**A.** A (A = MIC values ≤ 1)

**Q.** What about the fraction unbound at 4 h, 10 μM [4] of the same compound?
**A.** 0.05 to 0.25

**Q.** And the “MIC values EC NDM-7” value (Escherichia coli NDM-7)?
**A.** A (A = MIC values ≤ 1)

**Q.** What about the “Dose required to reduce minim 1 log fold CFU in a thigh and or a sepsis animal model” value (bacteria) of the same compound?
**A.** B (B = 30-10 mg/kg)

**Q.** What about the IC50 (IMP-1) of the same compound?
**A.** > 10 nM

**Q.** What about the “MIC values EC NDM-1” value (Escherichia coli NDM-1) of the same compound?
**A.** A (A = MIC values ≤ 1)

**Q.** And the fraction unbound at 4 h, 10 μM [5]?
**A.** 0.005 to 0.05

**Q.** And the IC50 (VIM-2)?
**A.** 0.1 to 1 nM

**Q.** With `C[C@@H](c1cccc2c(-c3ccc(CS(C)(=O)=O)c(F)c3)c(C(=O)O)[nH]c12)N1C[C@]2(C[C@@H](CN)C2)OC1=O` [IC-60, 7-((1S)-1-(2S,4r)-(2-(aminomethyl)-6-oxo-5-oxa-7-azaspiro[3.4]oct-7-yl)ethyl)-3-(3-fluoro-4-((methylsulfonyl)methyl)phenyl)-1H-indole-2-carboxylic acid] as the compound, how does the IC50 (VIM-1) read?
**A.** 0.1 to 1 nM

**Q.** And the IC50 (NDM-1)?
**A.** < 0.1 nM

**Q.** What about the half-life at 1 μM [1] of the same compound?
**A.** > 6.67 h

**Q.** And the half-life at 1 μM [2]?
**A.** > 6.67 h

**Q.** What about the “MIC values AB NDM-1” value [3] of the same compound?
**A.** A (A = MIC values ≤ 1)

**Q.** What about the fraction unbound at 4 h, 10 μM [4] of the same compound?
**A.** > 0.25

**Q.** What about the “MIC values EC NDM-7” value (Escherichia coli NDM-7) of the same compound?
**A.** A (A = MIC values ≤ 1)

**Q.** And the “Dose required to reduce minim 1 log fold CFU in a thigh and or a sepsis animal model” value (bacteria)?
**A.** C (C = 5-10 mg/kg)

**Q.** And the IC50 (IMP-1)?
**A.** > 10 nM

**Q.** What about the “MIC values EC NDM-1” value (Escherichia coli NDM-1) of the same compound?
**A.** A (A = MIC values ≤ 1)

**Q.** And the fraction unbound at 4 h, 10 μM [5]?
**A.** 0.05 to 0.25

**Q.** What about the IC50 (VIM-2) of the same compound?
**A.** 0.1 to 1 nM

**Q.** Which IC50 (VIM-1) does the source give for `C[C@@H](c1cccc2c(-c3ccc(CS(C)(=O)=O)c(F)c3)c(C(=O)O)[nH]c12)N1C[C@]2(C[C@H](CN)C2)OC1=O` [IC-61, 7-((1S)-1-(2R,4s)-(2-(aminomethyl)-6-oxo-5-oxa-7-azaspiro[3.4]oct-7-yl)ethyl)-3-(3-fluoro-4-((methylsulfonyl)methyl)phenyl)-1H-indole-2-carboxylic acid] here?
**A.** 0.1 to 1 nM

**Q.** What about the IC50 (NDM-1) of the same compound?
**A.** < 0.1 nM

**Q.** And the half-life at 1 μM [1]?
**A.** > 6.67 h

**Q.** What about the half-life at 1 μM [2] of the same compound?
**A.** > 6.67 h

**Q.** What about the “MIC values AB NDM-1” value [3] of the same compound?
**A.** B (B MIC values 2 ÷ 8)

**Q.** And the fraction unbound at 4 h, 10 μM [4]?
**A.** 0.05 to 0.25

**Q.** And the “MIC values EC NDM-7” value (Escherichia coli NDM-7)?
**A.** A (A = MIC values ≤ 1)

**Q.** And the “Dose required to reduce minim 1 log fold CFU in a thigh and or a sepsis animal model” value (bacteria)?
**A.** C (C = 5-10 mg/kg)

**Q.** What about the IC50 (IMP-1) of the same compound?
**A.** 1 to 10 nM

**Q.** And the “MIC values EC NDM-1” value (Escherichia coli NDM-1)?
**A.** A (A = MIC values ≤ 1)

**Q.** What about the fraction unbound at 4 h, 10 μM [5] of the same compound?
**A.** 0.005 to 0.05

**Q.** What about the IC50 (VIM-2) of the same compound?
**A.** < 0.1 nM
